This note sets out measurements from article PMC7079210 (Chembiochem, 2019).

For orientation: Ki means the equilibrium dissociation constant of an inhibitor or competing ligand from its target.

The target in the experiment is PhdB (phenylacetate decarboxylase), sewage culture version (uncultured Acidobacteriota bacterium, UniProt A0A2P1UAH0). The format is biochemical.
Chain of PhdB (phenylacetate decarboxylase), sewage culture version (A0A2P1UAH0 1-839): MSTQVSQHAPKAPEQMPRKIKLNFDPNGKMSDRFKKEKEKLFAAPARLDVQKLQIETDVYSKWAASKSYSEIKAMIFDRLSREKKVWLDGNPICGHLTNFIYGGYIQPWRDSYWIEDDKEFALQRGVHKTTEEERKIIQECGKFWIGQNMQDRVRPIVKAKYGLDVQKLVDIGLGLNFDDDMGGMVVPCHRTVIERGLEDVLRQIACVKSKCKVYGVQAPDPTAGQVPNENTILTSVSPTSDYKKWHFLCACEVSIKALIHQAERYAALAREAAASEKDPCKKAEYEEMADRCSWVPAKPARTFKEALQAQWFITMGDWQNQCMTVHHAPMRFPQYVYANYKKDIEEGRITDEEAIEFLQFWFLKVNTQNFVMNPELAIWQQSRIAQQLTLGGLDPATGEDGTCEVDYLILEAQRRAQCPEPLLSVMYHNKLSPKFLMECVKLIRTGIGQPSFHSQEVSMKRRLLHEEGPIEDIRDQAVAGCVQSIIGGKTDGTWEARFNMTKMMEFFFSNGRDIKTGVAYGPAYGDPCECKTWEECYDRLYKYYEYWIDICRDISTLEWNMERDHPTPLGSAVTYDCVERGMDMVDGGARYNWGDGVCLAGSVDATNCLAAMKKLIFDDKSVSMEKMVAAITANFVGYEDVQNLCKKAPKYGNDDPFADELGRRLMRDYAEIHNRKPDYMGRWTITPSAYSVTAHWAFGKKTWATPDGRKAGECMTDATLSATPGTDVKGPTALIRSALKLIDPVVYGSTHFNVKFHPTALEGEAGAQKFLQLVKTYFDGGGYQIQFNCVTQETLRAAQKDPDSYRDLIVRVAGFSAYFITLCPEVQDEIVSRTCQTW

Regarding `O=C(O)C(F)(F)c1ccccc1` [α,α‐difluorophenylacetate], the Ki stood at 370 ± 30 µM.
